Measurements: patent US8921555B2, “Substituted-1,3,8-triazaspiro[4.5]decane-2,4-diones” (Merck Sharp & Dohme Corp., priority 2009, dated 2014)

Target: T1, HIF-PHD2 (Homo sapiens, UniProt Q9GZT9)
T1 construct: FLAG-tagged full length PHD2 expressed in and purified from baculovirus-infected Sf9 cells; FLAG; made in house; host or cells: baculovirus-infected Sf9 cells
Assay: Assay for HIF-PHD2 Catalytic Activity (PHD2 Binding Activity)
Type: biochemical
Details: not given

T1 sequence (Q9GZT9 whole entry): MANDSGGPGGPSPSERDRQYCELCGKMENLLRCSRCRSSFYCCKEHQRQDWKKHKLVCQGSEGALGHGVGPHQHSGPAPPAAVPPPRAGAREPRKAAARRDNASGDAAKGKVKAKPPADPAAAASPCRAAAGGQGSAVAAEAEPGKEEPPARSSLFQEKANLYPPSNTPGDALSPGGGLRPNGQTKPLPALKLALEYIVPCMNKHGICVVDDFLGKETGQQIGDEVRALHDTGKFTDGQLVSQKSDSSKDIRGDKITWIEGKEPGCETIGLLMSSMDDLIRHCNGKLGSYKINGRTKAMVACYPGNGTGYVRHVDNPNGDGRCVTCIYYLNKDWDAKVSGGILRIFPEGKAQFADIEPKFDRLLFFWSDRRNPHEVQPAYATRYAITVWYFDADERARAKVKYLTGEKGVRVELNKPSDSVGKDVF

| Structure (SMILES) | IC50 |
| --- | --- |
| COc1ccnc(N2C(=O)N(c3ccccc3)C(=O)C23CCN(Cc2ncccc2C)CC3)n1 [Compound 1-30, 1-(4-methoxypyrimidin-2-yl)-8-[(3-methylpyridin-2-yl)methyl]-3-phenyl-1,3,8-triazaspiro[4.5]decane-2,4-dione] | > 50 nM |
| Cc1cccnc1CN1CCC2(CC1)C(=O)N(c1ccc(Br)cc1)C(=O)N2c1cc(-c2ccc(C(=O)O)cc2)ncn1 [Compound 7-15, 4-(6-{3-(4-bromophenyl)-8-[(3-methylpyridin-2-yl)methyl]-2,4-dioxo-1,3,8-triazaspiro[4.5]dec-1-yl}pyrimidin-4-yl)benzoic acid] | 0.5 to 20 nM |
| Cc1cc(N2C(=O)N(c3ccc(-c4ccc(C(=O)O)cc4)cc3)C(=O)C23CCN(Cc2ncccc2C)CC3)ncn1 [Compound 7-9, 4′-[8-[(3-methylpyridin-2-yl)methyl]-1-(6-methylpyrimidin-4-yl)-2,4-dioxo-1,3,8-triazaspiro[4.5]dec-3-yl]biphenyl-4-carboxylic acid] | 0.5 to 20 nM |
| CCCCOC(=O)c1[nH]cnc1CN1CCC2(CC1)C(=O)N(c1ccc(-c3ccccc3)cc1)C(=O)N2c1nccc(O)n1 [Compound 1-46, Butyl 4-{[3-biphenyl-4-yl-1-(4-hydroxypyrimidin-2-yl)-2,4-dioxo-1,3,8-triazaspiro[4.5]dec-8-yl]methyl}-1-H-imidazole-5-carboxylate] | 20 to 50 nM |
| Cc1cncc(N2C(=O)N(c3ccc(-c4ccc(C(=O)O)cc4C)cc3)C(=O)C23CCN(Cc2ncccc2C)CC3)n1 [Compound 7-6, 2-methyl-4′-{1-(6-methylpyrazin-2-yl)-8-[(3-methylpyridin-2-yl)methyl]-2,4-dioxo-1,3,8-triazaspiro[4.5]dec-3-yl}biphenyl-4-carboxylic acid] | 0.5 to 20 nM |
| O=C(O)CN1CCC2(CC1)C(=O)N(c1ccc(-c3ccccc3)cc1)C(=O)N2c1cnccn1 [Compound 2-3, (3-biphenyl-4-yl-2,4-dioxo-1-pyrazin-2-yl-1,3,8-triazaspiro[4.5]dec-8-yl)acetic acid] | 0.5 to 20 nM |
| COc1ccnc(N2C(=O)N(c3ccc(-c4ccccc4)cc3)C(=O)C23CCN(Cc2nc[nH]c2C)CC3)n1 [Compound 1-49, 3-biphenyl-4-yl-1-(4-methoxypyrimidin-2-yl)-8-[(5-methyl-1-H-imidazol-4-yl)methyl]-1,3,8-triazaspiro[4.5]decane-2,4-dione] | 0.5 to 20 nM |
| COc1cc(OC)nc(N2C(=O)N(c3ccc(-c4ccccc4)cc3)C(=O)C23CCN(Cc2ncccc2C)CC3)n1 [Compound 1-57, 3-biphenyl-4-yl-1-(4,6-dimethoxypyrimidin-2-yl)-8-[(3-methylpyridin-2-yl)methyl]-1,3,8-triazaspiro[4.5]decane-2,4-dione] | 0.5 to 20 nM |
| O=C(O)CN1CCC2(CC1)C(=O)N(c1ccc(-c3ccccc3)cc1)C(=O)N2c1cncnc1 [Compound 2-4, (3-biphenyl-4-yl-2,4-dioxo-1-pyrimidin-5-yl-1,3,8-triazaspiro[4.5]dec-8-yl)acetic acid] | 20 to 50 nM |
| CCCCOC(=O)c1[nH]cnc1CN1CCC2(CC1)C(=O)N(c1ccc(-c3ccccc3)cc1)C(=O)N2c1cc(OC)ncn1 [Compound 1-48, Butyl 4-{[3-biphenyl-4-yl-1-(6-methoxypyrimidin-4-yl)-2,4-dioxo-1,3,8-triazaspiro[4.5]dec-8-yl]methyl}-1-H-imidazole-5-carboxylate] | 0.5 to 20 nM |
| COC(=O)c1ccc(-c2ccc(N3C(=O)N(c4ncccn4)C4(CCN(Cc5ncccc5C)CC4)C3=O)cc2)cc1 [Compound 1-61, Methyl 4′-{8-[(3-methylpyridin-2-yl)methyl]-2,4-dioxo-1-pyrimidin-2-yl-1,3,8-triazaspiro[4.5]dec-3-yl}biphenyl-4-carboxylate] | 0.5 to 20 nM |
| CCOC(=O)C1CN(Cc2ncccc2C)CCC12C(=O)N(c1ccc(-c3ccccc3)cc1)C(=O)N2c1nccc(OC)n1 (stereo not shown) [Compound 3-2, ethyl 3-biphenyl-4-yl-1-(4-methoxypyrimidin-2-yl)-8-[(3-methylpyridin-2-yl)methyl]-2,4-dioxo-1,3,8-triazaspiro[4.5]decane-6-carboxylate] | 0.5 to 20 nM |
| COc1cc(N2C(=O)N(c3ccc(-c4ccc(C5CC(=O)NN5)cc4)cc3)C(=O)C23CCN(Cc2ncccc2C)CC3)ncn1 (stereo not shown) [Compound 7-13, 1-(6-methoxypyrimidin-4-yl)-8-[(3-methylpyridin-2-yl)methyl]-3-[4′-(5-oxopyrazolidin-3-yl)biphenyl-4-yl]-1,3,8-triazaspiro[4.5] decane-2,4-dione] | 0.5 to 20 nM |
| COc1ccnc(N2C(=O)N(c3ccc(-c4ccccc4)cc3)C(=O)C23CCN(Cc2nnn[nH]2)CC3)n1 [Compound 1.39, 3-biphenyl-4-yl-1-(4-methoxypyrimidin-2-yl)-8-(1H-tetrazol-5-ylmethyl)-1,3,8-triazaspiro[4.5]decane-2,4-dione] | > 50 nM |
| COc1ccnc(N2C(=O)N(c3ccc(-c4ccccc4)cc3)C(=O)C23CCN(Cc2ncccc2C#N)CC3)n1 [Compound 1-40, 2-{[3-biphenyl-4-yl-1-(4-methoxypyrimidin-2-yl)-2,4-dioxo-1,3,8-triazaspiro[4.5]dec-8-yl]methyl}nicotinonitrile] | > 50 nM |
| O=C(O)c1[nH]cnc1CN1CCC2(CC1)C(=O)N(c1ccc(-c3ccccc3)cc1)C(=O)N2c1cc(O)ncn1 [Compound 1-52, 4-{[3-biphenyl-4-yl-1-(6-hydroxypyrimidin-4-yl)-2,4-dioxo-1,3,8-triazaspiro[4.5]dec-8-yl]methyl}-1-H-imidazole-5-carboxylic acid] | 0.5 to 20 nM |
| Cc1cccnc1CN1CCC2(CC1)C(=O)N(c1ccc(-c3ccccc3)cc1)C(=O)N2c1ncc(O)cn1 [Compound 1-10, 3-biphenyl-4-yl-1-(5-hydroxypyrimidin-2-yl)-8-[(3-methylpyridin-2-yl)methyl]-1,3,8-triazaspiro[4.5]decane-2,4-dione] | 0.5 to 20 nM |
| COc1ccnc(N2C(=O)N(c3ccc(-c4ccccc4)cc3)C(=O)C23CCN(Cc2nccn2CC(=O)OC(C)(C)C)CC3)n1 [Compound 1-19, tert-butyl (2-{[3-biphenyl-4-yl-1-(4-methoxypyrimidin-2-yl)-2,4-dioxo-1,3,8-triazaspiro[4,5]dec-8-yl]methyl}-1H-imidazol-1-yl)acetate] | > 50 nM |
| Cc1cccnc1CN1CCC2(CC1)C(=O)N(c1ccc(-c3ccccc3)cc1)C(=O)N2c1ccncn1 [Compound 1-68, 3-biphenyl-4-yl-8-[(3-methylpyridin-2-yl)methyl]-1-pyrimidin-4-yl-1,3,8-triazaspiro[4.5]decane-2,4-dione] | 0.5 to 20 nM |
| Cc1cccnc1CN1CCC2(CC1)C(=O)N(c1ccc(-c3ccccc3)cc1)C(=O)N2c1cccc(F)n1 [Compound 1-6, 3-biphenyl-4-yl-1-(6-fluoropyridin-2-yl)-8-[(3-methylpyridin-2-yl)methyl]-1,3,8-triazaspiro[4.5]decane-2,4-dione] | 0.5 to 20 nM |
| COc1ccnc(N2C(=O)N(c3ccc(-c4ccccc4)cc3)C(=O)C23CCN(Cc2ncccc2-c2nnn[nH]2)CC3)n1 [Compound 1-41, 3-biphenyl-4-yl-1-(4-methoxypyrimidin-2-yl)-8-{[3-(1H-tetrazol-5-yl)pyridin-2-yl]methyl}-1,3,8-triazaspiro[4.5]decane-2,4-dione] | > 50 nM |
| COc1ccnc(N2C(=O)N(c3ccc(-c4ccccc4)cc3)C(=O)C23CCN(Cc2nccn2CC(=O)O)CC3)n1 [Compound 1-21, (2-{[3-biphenyl-4-yl-1-(4-methoxypyrimidin-2-yl)-2,4-dioxo-1,3,8-triazaspiro[4.5]dec-8-yl]methyl}-1H-imidazol-1-yl)acetic acid] | 0.5 to 20 nM |
| Cc1cccnc1CN1CCC2(CC1)C(=O)N(c1ccc(C(=O)O)cc1)C(=O)N2c1nccc(O)n1 [Compound 1-17, 4-{1-(4-hydroxypyrimidin-2-yl)-8-[(3-methylpyridin-2-yl)methyl]-2,4-dioxo-1,3,8-triazaspiro[4.5]dec-3-yl}benzoic acid] | > 50 nM |
| COC(=O)c1ccc(-c2ccc(N3C(=O)N(c4ccncn4)C4(CCN(Cc5ncccc5C)CC4)C3=O)cc2)c(C)c1 [Compound 8-2, methyl 2-methyl-4′-{8-[(3-methylpyridin-2-yl)methyl]-2,4-dioxo-1-pyrimidin-4-yl-1,3,8-triazaspiro[4.5]dec-3-yl}biphenyl-4-carboxylate] | 0.5 to 20 nM |
| O=C(O)c1[nH]cnc1CN1CCC2(CC1)C(=O)N(c1ccc(-c3ccccc3)cc1)C(=O)N2c1nccc(O)n1 [Compound 1-50] | 20 to 50 nM |
| Cc1cccnc1CN1CCC2(CC1)C(=O)N(c1ccc(C3CC3C(=O)O)cc1)C(=O)N2c1ncccn1 (stereo not shown) [Compound 1-69, 2-(4-{8-[(3-methylpyridin-2-yl)methyl]-2,4-dioxo-1-pyrimidin-2-yl-1,3,8-triazaspiro[4.5]dec-3-yl}phenyl)cyclopropanecarboxylic acid] | 0.5 to 20 nM |
| CCOC(=O)C1CN(Cc2ncccc2C)CCC12C(=O)N(c1ccc(-c3ccccc3)cc1)C(=O)N2c1nccc(O)n1 (stereo not shown) [Compound 3-3, ethyl 3-biphenyl-4-yl-1-(4-hydroxypyrimidin-2-yl)-8-[(3-methylpyridin-2-yl)methyl]-2,4-dioxo-1,3,8-triazaspiro[4.5]decane-6-carboxylate] | 0.5 to 20 nM |
| Cc1cccnc1CN1CCC2(CC1)C(=O)N(c1ccc(-c3ccccc3)cc1)C(=O)N2c1cccnc1 [Compound 1-18, 3-biphenyl-4-yl-8-[(3-methylpyridin-2-yl)methyl]-1-pyridin-3-yl-1,3,8-triazaspiro[4.5]decane-2,4-dione] | 0.5 to 20 nM |
| Cc1[nH]cnc1CN1CCC2(CC1)C(=O)N(c1ccc(-c3ccccc3)cc1)C(=O)N2c1cc(O)ncn1 [Compound 1-53, 3-biphenyl-4-yl-1-(6-hydroxypyrimidin-4-yl)-8-[(5-methyl-1-H-imidazol-4-yl)methyl]-1,3,8-triazaspiro[4.5]decane-2,4-dione] | 0.5 to 20 nM |

Same assay, conditions: read-out: PHD2 Binding Activity IC50

| Structure (SMILES) | IC50 |
| --- | --- |
| Cc1cccnc1CN1CCC2(CC1)C(=O)N(c1ccc(-c3ccccc3)cc1)C(=O)N2CC(=O)O [Compound 2-7] | 0.5 to 20 nM |
| Cc1cccnc1CN1CCC2(CC1)C(=O)N(c1ccc(-c3ccccc3)cc1)C(=O)N2C(=O)N[C@@H](C)C(=O)O [Compound 5-5, (2S)-2-[({3-biphenyl-4-yl-8-[(3-methylpyridin-2-yl)methyl]-2,4-dioxo-1,3,8-triazaspiro[4.5]dec-1-yl}carbonyl)amino]propanoic acid] | 0.5 to 20 nM |
